According to patent publication US20230257480A1, “ENHANCING BLOOD-BRAIN BARRIER DRUG TRANSPORT BY TARGETING ENDOGENOUS REGULATORS” (THE BOARD OF TRUSTEES OF THE LELAND STANFORD JUNIOR …, priority 2019, published 2023):

Test system: cerebrovascular morphology
Test: Cerebrovascular morphology by CD31 staining after ALPL inhibitor treatment
Assay type: in vivo
Conditions: aged (22 m.o.) mice, vs vehicle
Text: FIGS. 14A-14D are graphs illustrating flow cytometry quantification of brain endothelial cell uptake of plasma from young mice (3 m.o.) (FIG. 14A), plasma from aged mice (22 m.o.) (FIG. 14B), human holo-transferrin (hu-Tf) from aged mice (FIG. 14C), or transferrin receptor antibody (TfR Ab) from aged mice (FIG. 14D) treated with vehicle (grey) or anti-ALPL (green) via IP injections twice daily for three days, as assessed by % of BECs that are tracer^+ and relative MFI of tracer^+ BECs (for plasma, n=4; for hu-Tf, n=6 vehicle, n=5 anti-ALPL; for TfR Ab, n=9, two-sided t-test, mean+/−s.e.m.). Tracer refers to plasma, hu-Tf, or TfR Ab. FIG. 14E includes representative images of hu-Tf^+ neurons detected in the cortex of mice treated with ALPL inhibitor. Scale bar=40 microns. […] FIG. 14H includes graphs illustrating flow cytometry quantification of brain endothelial cell and brain parenchymal cell uptake of 3 kDa dextran tracer, which probes for disruptions in paracellular permeability, in young mice (3 m.o.) and aged mice (22 m.o.) (n=6 vehicle, n=5 anti-ALPL, two-sided t-test, mean+/−s.e.m.).
Brain tissue processing, immunohistochemistry, and immunofluorescence experiments were performed as described previously12,13. […] National Institutes of Health ImageJ software was used to quantify the percentage of vasculature (CD31 or AQP4) covered by CD13, AQP4, or ALPL, as described previously63. […]

vascular morphology: did not perturb
Structure (SMILES): COc1ccc(OC)c(S(=O)(=O)Nc2cnc3ccccc3c2)c1 [ALPL inhibitor, 2,5-Dimethoxy-N-(quinolin-3-yl)benzenesulfonamide]
